Data taken from patent EP4793274A1, “SALT AND CRYSTAL FORM OF KIF18A INHIBITOR COMPOUND, PREPARATION METHOD THEREFOR AND USE THEREOF” (Hubei Bio-Pharmaceutical Industrial Technological Institute …, priority 2023, dated 2025).
Counter-ions that a name gives are not always drawn. Like-named read-outs stand apart in the source and are kept apart here.

Key:
[1] = Dynamic solubility at 37 °C in H2O, SGF, FaSSIF and FeSSIF (HPLC concentration, pH of filtrate, XRPD of residual solid); type: physicochemical; conditions: for solubility at 1 h / solubility at 2 h / solubility at 4 h / solubility at 24 h / S: solubility: feeding concentration 10 mg/mL; for solubility at 1 h / solubility at 2 h / solubility at 4 h / solubility at 24 h: read-out: S: solubility; for FC: crystal form change: XRPD of residual solid; for pH: pH of filtrate
Method: 0.82 mL of glacial acetic acid and 1.18 g of NaCl were added to a 100 mL volumetric flask and completely dissolved by addition of purified water.
The solubility of each sample in H2O, SGF, FaSSIF, and FeSSIF was determined at different time points (1 h, 2 h, 4 h, and 24 h). […] 137-156. […] Table C-2. Summary of dynamic solubility test results at 37 °C

[2] = Hygroscopicity by dynamic vapor sorption (DVS); type: physicochemical; conditions: for vapor sorption values: 25 °C/80% RH
Method: Dynamic vapor sorption (DVS) curves were acquired on a DVS IntrInsic from Surface Measurement Systems (SMS). The relative humidity at 25 °C was corrected with the deliquescence points of LiCl, Mg(NO3)2, and KCl. Table A-5. DVS test parameters
The percentage changes in mass of the samples when the humidity changed (0% RH to 95% RH) at a constant temperature of 25 °C were collected. 157-166.

[3] = Solid state stability (XRPD and HPLC purity); type: physicochemical
Source text: 167-171. […] Table C-3. Summary of solid state stability evaluation

[4] = Solubility at room temperature in water, SGF and FaSSIF (HPLC concentration, pH of filtrate, XRPD of residual solid); conditions: for pH: pH of filtrate, listed as Crystal form B of sulfate
[5] = FaSSIF, 1 h, listed as Crystal form B of sulfate
[6] = FaSSIF, 2 h, listed as Crystal form B of sulfate
[7] = FaSSIF, 4 h, listed as Crystal form B of sulfate
[8] = FaSSIF, 24 h, listed as Crystal form B of sulfate
[9] = FeSSIF, 1 h, listed as Crystal form B of sulfate
[10] = FeSSIF, 2 h, listed as Crystal form B of sulfate
[11] = FeSSIF, 4 h, listed as Crystal form B of sulfate
[12] = FeSSIF, 24 h, listed as Crystal form B of sulfate
[13] = H2O, 1 h, listed as Crystal form B of sulfate
[14] = H2O, 24 h, listed as Crystal form B of sulfate
[15] = 80 °C/sealed, 1 day, listed as Crystal form B of sulfate

Question: For Cc1cc(-c2cnn(-c3ccc(NS(=O)(=O)CCO)cc3N3CCC4(CC3)CC4)c2)nc(N2CCC(F)(F)CC2)n1 [crystal form B of the sulfate], which solubility at 1 h ([1]; FaSSIF, 1 h) is on record?
Answer: 53.9 µg/mL

Question: What about the solubility at 2 h ([1]; FaSSIF, 2 h) of the same molecule?
Answer: 36.4 µg/mL

Question: And the solubility at 4 h ([1]; FaSSIF, 4 h)?
Answer: 28.1 µg/mL

Question: What about the solubility at 24 h ([1]; FaSSIF, 24 h) of the same molecule?
Answer: 13.6 µg/mL

Question: And the solubility at 1 h ([1]; FeSSIF, 1 h)?
Answer: 194 µg/mL

Question: And the solubility at 2 h ([1]; FeSSIF, 2 h)?
Answer: 186 µg/mL

Question: And the solubility at 4 h ([1]; FeSSIF, 4 h)?
Answer: 166 µg/mL

Question: And the solubility at 24 h ([1]; FeSSIF, 24 h)?
Answer: 79 µg/mL

Question: And the solubility at 1 h ([1]; SGF, 1 h)?
Answer: 147 µg/mL

Question: What about the solubility at 2 h ([1]; SGF, 2 h) of the same molecule?
Answer: 82.4 µg/mL

Question: And the solubility at 4 h ([1]; SGF, 4 h)?
Answer: 18.1 µg/mL

Question: What about the solubility at 24 h ([1]; SGF, 24 h) of the same molecule?
Answer: 18.5 µg/mL

Question: What about the “FC: crystal form change” value [1, 5] of the same molecule?
Answer: Yes

Question: And the “FC: crystal form change” value [1, 6]?
Answer: Yes

Question: And the “FC: crystal form change” value [1, 7]?
Answer: Yes

Question: And the “FC: crystal form change” value [1, 8]?
Answer: Yes

Question: What about the “FC: crystal form change” value [1, 9] of the same molecule?
Answer: Yes

Question: What about the “FC: crystal form change” value [1, 10] of the same molecule?
Answer: Yes

Question: And the “FC: crystal form change” value [1, 11]?
Answer: Yes

Question: And the “FC: crystal form change” value [1, 12]?
Answer: Yes

Question: And the “FC: crystal form change” value [1, 13]?
Answer: Yes

Question: And the “FC: crystal form change” value ([1]; H2O, 2 h, listed as Crystal form B of sulfate)?
Answer: Yes

Question: What about the “FC: crystal form change” value ([1]; H2O, 4 h, listed as Crystal form B of sulfate) of the same molecule?
Answer: Yes

Question: What about the “FC: crystal form change” value [1, 14] of the same molecule?
Answer: Yes

Question: What about the “FC: crystal form change” value ([1]; SGF, 1 h, listed as Crystal form B of sulfate) of the same molecule?
Answer: Yes

Question: And the “FC: crystal form change” value ([1]; SGF, 2 h, listed as Crystal form B of sulfate)?
Answer: Yes

Question: What about the “FC: crystal form change” value ([1]; SGF, 4 h, listed as Crystal form B of sulfate) of the same molecule?
Answer: Yes

Question: What about the “FC: crystal form change” value ([1]; SGF, 24 h, listed as Crystal form B of sulfate) of the same molecule?
Answer: Yes

Question: And the pH [1, 5]?
Answer: 2.06

Question: And the pH [1, 6]?
Answer: 2.13

Question: What about the pH [1, 7] of the same molecule?
Answer: 2.07

Question: And the pH [1, 8]?
Answer: 2.08

Question: What about the pH [1, 9] of the same molecule?
Answer: 4.50

Question: What about the pH [1, 10] of the same molecule?
Answer: 4.49

Question: And the pH [1, 11]?
Answer: 4.48

Question: And the pH [1, 12]?
Answer: 4.48

Question: And the pH [1, 13]?
Answer: 1.50

Question: What about the pH [1, 14] of the same molecule?
Answer: 1.56

Question: And the solubility at 1 h ([1]; water, H2O, 1 h)?
Answer: 38.2 µg/mL

Question: And the solubility at 2 h ([1]; water, H2O, 2 h)?
Answer: 18 µg/mL

Question: What about the solubility at 4 h ([1]; water, H2O, 4 h) of the same molecule?
Answer: 11.1 µg/mL

Question: And the solubility at 24 h ([1]; water, H2O, 24 h)?
Answer: 3 µg/mL

Question: What about the vapor sorption values [2] of the same molecule?
Answer: 0.445%

Question: What about the “HPLC results Purity (area%)” value ([3]; 25 °C/60% RH/open, 1 week, listed as Crystal form B of sulfate) of the same molecule?
Answer: 97.97 area%

Question: And the “HPLC results Purity (area%)” value ([3]; 40 °C/75% RH/open, 1 week, listed as Crystal form B of sulfate)?
Answer: 97.98 area%

Question: What about the “HPLC results Purity (area%)” value [3, 15] of the same molecule?
Answer: 97.98 area%

Question: What about the “HPLC results Relative to starting (%)” value [3, 15] of the same molecule?
Answer: 100.0%

Question: What about the “HPLC results Purity (area%)” value ([3]; Starting, listed as Crystal form B of sulfate) of the same molecule?
Answer: 98.00 area%

Question: And the Crystal form ([3]; XRPD after 25 °C/60% RH/open, 1 week, listed as Crystal form B of sulfate)?
Answer: Crystal form B of sulfate

Question: And the Crystal form ([3]; XRPD after 40 °C/75% RH/open, 1 week, listed as Crystal form B of sulfate)?
Answer: Crystal form B of sulfate

Question: And the Crystal form ([3]; XRPD after 80 °C/sealed, 1 day, listed as Crystal form B of sulfate)?
Answer: Crystal form B of sulfate

Question: And the solubility at 2 h (physchem; fassif)?
Answer: 61.6 µg/mL

Question: And the solubility at 24 h (physchem; fassif)?
Answer: 33.8 µg/mL

Question: What about the solubility at 2 h (physchem; sgf) of the same molecule?
Answer: 54.5 µg/mL

Question: What about the solubility at 24 h (physchem; sgf) of the same molecule?
Answer: 25 µg/mL

Question: And the solubility at 24 h (physchem; water)?
Answer: 0.1 µg/mL

Question: And the “S: solubility” value ([4]; H2O, 2 h, feeding concentration 1 mg/mL)?
Answer: <LOQ

Question: What about the pH ([4]; FaSSIF, 2 h) of the same molecule?
Answer: 6.3

Question: What about the pH ([4]; FaSSIF, 24 h) of the same molecule?
Answer: 6.2

Question: What about the pH ([4]; H2O, 2 h) of the same molecule?
Answer: 2.7

Question: What about the pH ([4]; H2O, 24 h) of the same molecule?
Answer: 2.5

Question: What about the pH ([4]; SGF, 2 h) of the same molecule?
Answer: 1.8

Question: And the pH ([4]; SGF, 24 h)?
Answer: 1.8

Question: What does the source list for Cc1cc(-c2cnn(-c3ccc(NS(=O)(=O)CCO)cc3N3CCC4(CC3)CC4)c2)nc(N2CCC(F)(F)CC2)n1 [free crystal form D]?
Answer: S: solubility ([1]; FaSSIF, 1 h, 60 min): 6.5 µg/mL; S: solubility ([1]; FaSSIF, 2 h, 120 min): 6.5 µg/mL; S: solubility ([1]; FaSSIF, 4 h, 240 min): 6.3 µg/mL; S: solubility ([1]; FaSSIF, 24 h, 1440 min): 5 µg/mL; S: solubility ([1]; FeSSIF, 1 h, 60 min): 16.2 µg/mL; S: solubility ([1]; FeSSIF, 2 h, 120 min): 17.2 µg/mL; S: solubility ([1]; FeSSIF, 4 h, 240 min): 15.4 µg/mL; S: solubility ([1]; FeSSIF, 24 h, 1440 min): 15 µg/mL; S: solubility ([1]; H2O, 1 h, 60 min): 0.1 µg/mL; S: solubility ([1]; H2O, 2 h, 120 min): 0.1 µg/mL; S: solubility ([1]; H2O, 4 h, 240 min): 0.2 µg/mL; S: solubility ([1]; SGF, 1 h, 60 min): 6.2 µg/mL; S: solubility ([1]; SGF, 2 h, 120 min): 5.7 µg/mL; S: solubility ([1]; SGF, 4 h, 240 min): 5.9 µg/mL; S: solubility ([1]; SGF, 24 h, 1440 min): 5.1 µg/mL; FC: crystal form change ([1]; FaSSIF, 1 h): No; FC: crystal form change ([1]; FaSSIF, 2 h): No; FC: crystal form change ([1]; FaSSIF, 4 h): No; FC: crystal form change ([1]; FaSSIF, 24 h): No; FC: crystal form change ([1]; FeSSIF, 1 h): No; FC: crystal form change ([1]; FeSSIF, 2 h): No; FC: crystal form change ([1]; FeSSIF, 4 h): No; FC: crystal form change ([1]; FeSSIF, 24 h): No; FC: crystal form change ([1]; H2O, 1 h): No; FC: crystal form change ([1]; H2O, 2 h): No; FC: crystal form change ([1]; H2O, 4 h): No; FC: crystal form change ([1]; H2O, 24 h): No; FC: crystal form change ([1]; SGF, 1 h): No; FC: crystal form change ([1]; SGF, 2 h): No; FC: crystal form change ([1]; SGF, 4 h): No; FC: crystal form change ([1]; SGF, 24 h): No; pH ([1]; FaSSIF, 1 h): 6.51; pH ([1]; FaSSIF, 2 h): 6.53; pH ([1]; FaSSIF, 4 h): 6.55; pH ([1]; FaSSIF, 24 h): 6.49; pH ([1]; FeSSIF, 1 h): 4.97; pH ([1]; FeSSIF, 2 h): 5.01; pH ([1]; FeSSIF, 4 h): 4.97; pH ([1]; FeSSIF, 24 h): 4.96; pH ([1]; H2O, 1 h): 6.91; pH ([1]; H2O, 2 h): 7.64; pH ([1]; H2O, 4 h): 7.88; pH ([1]; H2O, 24 h): 7.65; pH ([1]; SGF, 1 h): 1.26; pH ([1]; SGF, 2 h): 1.38; pH ([1]; SGF, 4 h): 1.29; pH ([1]; SGF, 24 h): 1.32; crystal form after the DVS test (XRPD) ([2]; 25 °C, 0% RH to 95% RH): converted to the free crystal forms D + J; vapor sorption values [2]: 3.129%; crystal form after the stability test (XRPD) ([3]; 80 °C/sealed condition for 1 day): converted to the free crystal forms J + D
